Laboratory results taken from patent US9771343B2, “2-alkyl-or-aryl-substituted tanshinone derivatives, and preparation method and application thereof” (Hangzhou Bensheng Pharmaceutical Co., Ltd., priority 2011, dated 2017).
Converted amounts (≈) assume the structure as drawn.

Experiments:
[1] = tested on: Jurkat (acute lymphoblastic leukemia, ALL); assay: MTT cell growth inhibition, Jurkat leukemia cells, 72 h; assay type: cell-based; conditions: Homo sapiens, 72 h; for IC50: read-out: IC50; for IC90: read-out: IC90
Procedure: (§1) The standard sample of tanshinone I (TA) and the 2-alkyl- or 2-aromatic-substituted tanshinone I derivatives of the present invention are sufficiently dissolved in dimethylsulfoxide to produce a stock solution of 10 mg/mL, which is refrigerated at 4° C. and stored in dark, and is diluted with cell culture medium to a desired concentration prior to experimentation.
(§2) Obtaining 6000 well-growing leukemia cells and inoculating them into wells of a 96-well cell culture plate. The culture medium is the RPMI-1640 cell culture medium containing 10% fetal bovine serum. After adding on the second day the 2-alkyl- or 2-aromatic-substituted tanshinone I derivatives of different concentrations and mixing uniformly, placing the plate in a carbon dioxide cell incubator (5% CO2) at 37° C. and incubated for 72 hours. Then the viable cell concentration is determined by MTT method. In this experiment, the cell viability in control group (not treated with any compound) is set as 100%, and the cell viability (%) after treatment by the compounds and the half maximum inhibitory concentration for the leukemia cell at 72 hours (IC50 value of 72 hours, μg/mL) are calculated.

[2] = tested on: CaES-17 (esophageal cancer cell); assay: MTT cell growth inhibition, CaES-17 cells, 72 h; assay type: cell-based, human; conditions: Homo sapiens, CaEs17, CaEs-17, 72 h; for IC50: read-out: IC50; for IC90: read-out: IC90
Procedure: (§3) The standard sample of tanshinone I (TA) and the 2-alkyl- or 2-aromatic-substituted tanshinone I derivatives of the present invention are sufficiently dissolved in dimethylsulfoxide to produce a stock solution of 10 mg/mL, which is refrigerated at 4° C. and stored in dark, and is diluted with a cell culture medium to the desired concentration prior to experimentation.
(§4) Obtaining 6000 well-growing human solid tumor cells and inoculating them into wells of a 96-well cell culture plate. The culture medium is DMEM High Glucose cell culture medium containing 10% fetal bovine serum. The plate is placed in a carbon dioxide cell incubator (5% CO2) at 37° C. and incubated for 24 hours. After adding the 2-alkyl- or 2-aromatic-substituted tanshinone I derivatives of different concentrations and mixing uniformly, the plate is placed in a carbon dioxide cell incubator (5% CO2) at 37° C. and incubated for 72 hours. Then the viable cell concentration is determined by MTT method. In this experiment, the cell viability in control group (not treated with any compound) is set as 100%, and the cell viability (%) after treatment by the compounds and the half maximum inhibitory concentration for the leukemia cell at 72 hours (IC50 value of 72 hours, μg/mL) are calculated.

[3] = tested on: H9 (acute lymphoblastic leukemia, ALL); assay: MTT cell growth inhibition, H9 leukemia cells, 72 h; assay type: cell-based; conditions: H9, 72 h; for IC50: read-out: IC50; for IC90: read-out: IC90
Procedure: as §1, §2

[4] = tested on: PANC-1 (pancreatic cancer); assay: MTT cell growth inhibition, PANC-1 cells, 72 h; assay type: cell-based, human; conditions: Homo sapiens, PANC-1, 72 h; for IC50: read-out: IC50; for IC90: read-out: IC90
Procedure: as §3, §4

[5] = tested on: SK-OV-3 (ovarian cancer cell); assay: MTT cell growth inhibition, SK-OV-3 cells, 72 h; assay type: cell-based, human; conditions: Homo sapiens, SK-OV-3, 72 h; for IC50: read-out: IC50; for IC90: read-out: IC90
Procedure: as §3, §4

[6] = tested on: CNE (nasopharyngeal carcinoma cell); assay: MTT cell growth inhibition, CNE cells, 72 h; assay type: cell-based, human; conditions: for IC50 / IC90: Homo sapiens, CNE, 72 h; for IC50: read-out: IC50; for IC90: read-out: IC90
Procedure: as §3, §4

[7] = tested on: MGC 803 (human gastric cancer cell); assay: MTT cell growth inhibition, MGC 803 cells, 72 h; assay type: cell-based; conditions: Homo sapiens, MGC-803, 72 h; for IC50: read-out: IC50; for IC90: read-out: IC90
Procedure: as §3, §4

[8] = tested on: K562/adr (drug-resistant, chronic myeloid leukemia, CML); assay: MTT cell growth inhibition, K562/adr leukemia cells, 72 h; assay type: cell-based; conditions: Homo sapiens, K562/Adr; for IC50: read-out: IC50; for IC90: read-out: IC90
Procedure: as §1, §2

[9] = tested on: A549 (human lung cancer); assay: MTT cell growth inhibition, A549 cells, 72 h; assay type: cell-based; conditions: Homo sapiens, A549, 72 h; for IC50: read-out: IC50; for IC90: read-out: IC90
Procedure: as §3, §4

[10] = tested on: Hep-2 (laryngeal carcinoma); assay: MTT cell growth inhibition, Hep-2 cells, 72 h; assay type: cell-based, human; conditions: Homo sapiens, HEp-2, 72 h; for IC50: read-out: IC50; for IC90: read-out: IC90
Procedure: as §3, §4

[11] = tested on: NB4 (acute promyelocytic leukemia, AML); assay: MTT cell growth inhibition, NB4 leukemia cells, 72 h; assay type: cell-based; conditions: NB4, 72 h; for IC50: read-out: IC50; for IC90: read-out: IC90
Procedure: as §1, §2

[12] = tested on: PC-3 (prostate cancer); assay: MTT cell growth inhibition, PC-3 cells, 72 h; assay type: cell-based, human; conditions: for IC50 / IC90: Homo sapiens, PC-3, 72 h; for IC50: read-out: IC50; for IC90: read-out: IC90
Procedure: as §3, §4

[13] = tested on: U87 MG (malignant glioma cell); assay: MTT cell growth inhibition, U87 MG cells, 72 h; assay type: cell-based, human; conditions: for IC50 / IC90: Homo sapiens, U-87 MG, U87-MG, 72 h; for IC50: read-out: IC50; for IC90: read-out: IC90
Procedure: as §3, §4

[14] = tested on: Hep G2 (human liver cancer cell); assay: MTT cell growth inhibition, Hep G2 cells, 72 h; assay type: cell-based; conditions: Homo sapiens, HepG2, Hep G2, 72 h; for IC50: read-out: IC50; for IC90: read-out: IC90
Procedure: as §3, §4

[15] = tested on: RKO (human colon adenocarcinoma cell); assay: MTT cell growth inhibition, RKO cells, 72 h; assay type: cell-based; conditions: for IC50 / IC90: Homo sapiens, RKO, 72 h; for IC50: read-out: IC50; for IC90: read-out: IC90
Procedure: as §3, §4

[16] = tested on: Kasumi-1 (acute myeloid leukemia M2 type, AML-M2); assay: MTT cell growth inhibition, Kasumi-1 leukemia cells, 72 h; assay type: cell-based; conditions: Homo sapiens, Kasumi-1, 72 h; for IC50: read-out: IC50; for IC90: read-out: IC90
Procedure: as §1, §2

[17] = tested on: Hela (human cervical cancer cell); assay: MTT cell growth inhibition, Hela cells, 72 h; assay type: cell-based; conditions: Homo sapiens, HeLa, 72 h; for IC50: read-out: IC50; for IC90: read-out: IC90
Procedure: as §3, §4

[18] = tested on: RPMI8226 (multiple myeloma); assay: MTT cell growth inhibition, RPMI8226 multiple myeloma cells, 72 h; assay type: cell-based, human; conditions: Homo sapiens, RPMI 8226, 72 h; for IC50: read-out: IC50; for IC90: read-out: IC90
Procedure: as §1, §2

[19] = tested on: MG63 (osteosarcoma); assay: MTT cell growth inhibition, MG63 cells, 72 h; assay type: cell-based, human; conditions: Homo sapiens, MG-63, 72 h; for IC50: read-out: IC50; for IC90: read-out: IC90
Procedure: as §3, §4

[20] = tested on: Becap37 (human breast cancer cell); assay: MTT cell growth inhibition, Becap37 cells, 72 h; assay type: cell-based; conditions: Homo sapiens, Becap-37, 72 h; for IC50: read-out: IC50; for IC90: read-out: IC90
Procedure: as §3, §4

SMILES: Cc1oc2c(c1C)C(=O)C(=O)c1c-2ccc2c(C)cccc12 [BS-TA-03]
- IC50 [1]: 1.88 µg/mL (≈ 6.48 µM)
- IC90 [1]: 6.97 µg/mL (≈ 24 µM)
- IC50 [2]: 5.19 µg/mL (≈ 17.9 µM)
- IC90 [2]: 20.4 µg/mL (≈ 70.3 µM)
- IC50 [3]: 6.4 µg/mL (≈ 22 µM)
- IC90 [3]: > 16 µg/mL
- IC50 [4]: 3.46 µg/mL (≈ 11.9 µM)
- IC90 [4]: > 16 µg/mL
- IC50 [5]: > 16 µg/mL
- IC90 [5]: > 16 µg/mL
- IC50 [6]: 3.9 µg/mL (≈ 13.4 µM)
- IC90 [6]: 97 µg/mL (≈ 334 µM)
- anti-CNE activity (in words) ([6]; Table 2): good activity
- IC50 [7]: 4.65 µg/mL (≈ 16 µM)
- IC90 [7]: 18.4 µg/mL (≈ 63.4 µM)
- IC50 [8]: 8.84 µg/mL (≈ 30.4 µM)
- IC90 [8]: 28.7 µg/mL (≈ 98.7 µM)
- IC50 [9]: 6.45 µg/mL (≈ 22.2 µM)
- IC90 [9]: > 16 µg/mL
- IC50 [10]: 9.17 µg/mL (≈ 31.6 µM)
- IC90 [10]: > 16 µg/mL
- IC50 [11]: 1.13 µg/mL (≈ 3.89 µM)
- IC90 [11]: 3.64 µg/mL (≈ 12.5 µM)
- IC50 [12]: 4.99 µg/mL (≈ 17.2 µM)
- IC90 [12]: 17.5 µg/mL (≈ 60.3 µM)
- anti-PC-3 activity (in words) ([12]; Table 2): good activity
- IC50 [13]: 6.63 µg/mL (≈ 22.8 µM)
- IC90 [13]: 16.8 µg/mL (≈ 57.7 µM)
- IC50 [14]: 5.48 µg/mL (≈ 18.9 µM)
- IC90 [14]: > 16 µg/mL
- IC50 [15]: 1.35 µg/mL (≈ 4.65 µM)
- IC90 [15]: > 16 µg/mL
- anti-RKO activity (in words) ([15]; Table 2): good activity
- IC50 [16]: 9.66 µg/mL (≈ 33.3 µM)
- IC90 [16]: 30.3 µg/mL (≈ 104 µM)
- IC50 [17]: 4 µg/mL (≈ 13.8 µM)
- IC90 [17]: > 16 µg/mL
- IC50 [18]: 2 µg/mL (≈ 6.89 µM)
- IC90 [18]: 16.5 µg/mL (≈ 56.8 µM)
- IC50 [19]: 3.18 µg/mL (≈ 11 µM)
- IC90 [19]: > 16 µg/mL
- IC50 [20]: 3.96 µg/mL (≈ 13.6 µM)
- IC90 [20]: > 16 µg/mL

SMILES: Cc1c(-c2ccccc2Cl)oc2c1C(=O)C(=O)c1c-2ccc2c(C)cccc12 [BS-TA-04]
- IC50 [1]: 4.83 µg/mL (≈ 12.5 µM)
- IC90 [1]: 9.72 µg/mL (≈ 25.1 µM)
- IC50 [2]: 11 µg/mL (≈ 28.5 µM)
- IC90 [2]: 28.8 µg/mL (≈ 74.5 µM)
- IC50 [3]: 6.7 µg/mL (≈ 17.3 µM)
- IC90 [3]: > 16 µg/mL
- IC50 [4]: 9.8 µg/mL (≈ 25.3 µM)
- IC90 [4]: > 16 µg/mL
- IC50 [5]: > 16 µg/mL
- IC90 [5]: > 16 µg/mL
- IC50 [6]: 10.5 µg/mL (≈ 27.1 µM)
- IC90 [6]: > 16 µg/mL
- IC50 [7]: 8.88 µg/mL (≈ 23 µM)
- IC90 [7]: 23.9 µg/mL (≈ 61.9 µM)
- IC50 [8]: 15.5 µg/mL (≈ 40.1 µM)
- IC90 [8]: > 16 µg/mL
- IC50 [9]: 6.92 µg/mL (≈ 17.9 µM)
- IC90 [9]: > 16 µg/mL
- IC50 [10]: 11.6 µg/mL (≈ 30.1 µM)
- IC90 [10]: > 16 µg/mL
- IC50 [11]: 4.09 µg/mL (≈ 10.6 µM)
- IC90 [11]: 11.2 µg/mL (≈ 29 µM)
- IC50 [12]: > 16 µg/mL
- IC90 [12]: > 16 µg/mL
- IC50 [13]: 5.73 µg/mL (≈ 14.8 µM)
- IC90 [13]: 19.2 µg/mL (≈ 49.6 µM)
- anti-U87 MG activity (in words) ([13]; Table 2): superior to that of tanshinone I per se
- IC50 [14]: 14.5 µg/mL (≈ 37.4 µM)
- IC90 [14]: > 16 µg/mL
- IC50 [15]: 5.01 µg/mL (≈ 13 µM)
- IC90 [15]: > 16 µg/mL
- IC50 [16]: > 16 µg/mL
- IC90 [16]: > 16 µg/mL
- IC50 [17]: 5.5 µg/mL (≈ 14.2 µM)
- IC90 [17]: 22.2 µg/mL (≈ 57.4 µM)
- IC50 [18]: 4 µg/mL (≈ 10.3 µM)
- IC90 [18]: 16.1 µg/mL (≈ 41.5 µM)
- IC50 [19]: 10.3 µg/mL (≈ 26.7 µM)
- IC90 [19]: > 16 µg/mL
- IC50 [20]: 9.34 µg/mL (≈ 24.1 µM)
- IC90 [20]: > 16 µg/mL
